The values that follow come from US11613522B2, “Herbicidally active 3-phenylisoxazoline-5-carboxamides of tetrahydro- and dihydrofurancarboxamides” (BAYER AKTIENGESELLSCHAFT, priority 2017, dated 2023).

What all share (assay type): in vivo
Assay [1] deals with Alopecurus myosuroides. In words: Pre-emergence herbicidal activity against ALOMY. The note with it: Alopecurus myosuroides, 504 h, dosage 80 g/ha, scored visually after about 3 weeks vs untreated controls. An excerpt:
(§1) 1. Pre-emergence herbicidal action against harmful plants and crop plant compatibility Seeds of monocotyledonous and dicotyledonous weed plants and crop plants are placed in plastic or wood fiber pots and covered with soil. The compounds of the invention, formulated in the form of wettable powders (WP) or as emulsion concentrates (EC), are then applied onto the surface of the covering soil as aqueous suspension or emulsion with addition of 0.5% additive at a water application rate of 600 l/ha (converted). After the treatment, the pots are placed in a greenhouse and kept under good growth conditions for the trial plants. After about 3 weeks, the effect of the preparations is scored visually in comparison with untreated controls as percentages. For example, 100% activity=the plants have died, 0% activity=like control plants. [table]

In assay [2] the test system is Avena fatua. In words: Pre-emergence herbicidal activity against AVEFA. The note with it: Avena fatua, 504 h, dosage 80 g/ha, scored visually after about 3 weeks vs untreated controls, read-out: Pre-emergence herbicidal activity in % against AVEVA (AVEFA).
From the text: as §1

Assay [3] deals with Echinochloa crus-galli. In words: Pre-emergence herbicidal activity against ECHCG. The note with it: Echinochloa crus-galli, 504 h, dosage 80 g/ha, scored visually after about 3 weeks vs untreated controls.
From the text: as §1

Assay [4] has as its system Lolium rigidum. Kind of assay: Pre-emergence herbicidal activity against LOLRI. Particulars: Lolium rigidum, 504 h, dosage 80 g/ha, scored visually after about 3 weeks vs untreated controls.
From the text: as §1

Assay [5] concerns Setaria viridis. Kind of assay: Pre-emergence herbicidal activity against SETVI. The note with it: Setaria viridis, 504 h, dosage 80 g/ha, scored visually after about 3 weeks vs untreated controls.
From the text: as §1

The test system of assay [6] is Amaranthus retroflexus. Kind of assay: Pre-emergence herbicidal activity against AMARE. The note with it: Amaranthus retroflexus, 504 h, dosage 80 g/ha, scored visually after about 3 weeks vs untreated controls.
From the text: as §1

Assay [7] has as its system Polygonum convolvulus. In words: Pre-emergence herbicidal activity against POLCO. The note with it: Fallopia convolvulus, 504 h, dosage 80 g/ha, scored visually after about 3 weeks vs untreated controls.
From the text: as §1

Assay [8] deals with Stellaria media. In words: Pre-emergence herbicidal activity against STEME. The note with it: Stellaria media, 504 h, dosage 80 g/ha, scored visually after about 3 weeks vs untreated controls.
From the text: as §1

In assay [9] the test system is Viola tricolor. In words: Pre-emergence herbicidal activity against VIOTR. Particulars: Viola tricolor, 504 h, dosage 80 g/ha, scored visually after about 3 weeks vs untreated controls.
From the text: as §1

Assay [10] concerns Veronica persica. Kind of assay: Pre-emergence herbicidal activity against VERPE. The note with it: Veronica persica, 504 h, dosage 80 g/ha.
From the text: as §1

The subject of assay [11] is Hordeum murinum. Kind of assay: Pre-emergence herbicidal activity against HORMU. The note with it: Hordeum murinum, 504 h, dosage 80 g/ha.
From the text: as §1

Assay [12] relates to Alopecurus myosuroides. Kind of assay: Post-emergence herbicidal activity against ALOMY. The note with it: Alopecurus myosuroides, 504 h, dosage 320 g/ha, rated visually after about 3 weeks. Here is the method:
(§2) [table] Seeds of monocotyledonous and dicotyledonous weeds and crop plants are placed in sandy loam in plastic or wood-fiber pots, covered with soil and cultivated in a greenhouse under controlled growth conditions. 2 to 3 weeks after sowing, the test plants are treated at the one-leaf stage. The compounds of the invention, formulated in the form of wettable powders (WP) or as emulsion concentrates (EC), are then sprayed onto the green parts of the plants as aqueous suspension or emulsion with addition of 0.5% additive at a water application rate of 600 l/ha (converted). After the test plants had been kept in the greenhouse under optimum growth conditions for about 3 weeks, the activity of the preparations is rated visually in comparison to untreated controls. For example, 100% activity=the plants have died, 0% activity=like control plants.

For assay [13], the system named is Avena fatua. In words: Post-emergence herbicidal activity against AVEFA. The note with it: Avena fatua, 504 h, dosage 320 g/ha, rated visually after about 3 weeks. The method, then:
as §2

Assay [14] deals with Echinochloa crus-galli. Kind of assay: Post-emergence herbicidal activity against ECHCG. Particulars: Echinochloa crus-galli, 504 h, dosage 320 g/ha, rated visually after about 3 weeks. Here is the method: as §2
Assay [15] has as its system Lolium rigidum. Kind of assay: Post-emergence herbicidal activity against LOLRI. The note with it: Lolium rigidum, 504 h, dosage 320 g/ha, rated visually after about 3 weeks. Here is the method:
as §2

In assay [16] the test system is Setaria viridis. In words: Post-emergence herbicidal activity against SETVI. The note with it: Setaria viridis, 504 h, dosage 320 g/ha, rated visually after about 3 weeks. Here is the method:
as §2

For assay [17], the system named is Abutilon theophrasti. Kind of assay: Post-emergence herbicidal activity against ABUTH. Particulars: Abutilon theophrasti, 504 h, dosage 320 g/ha, rated visually after about 3 weeks. The method, then:
as §2

Assay [18] relates to Pharbitis purpurea. Kind of assay: Post-emergence herbicidal activity against PHBPU. The note with it: Ipomoea purpurea, 504 h, dosage 320 g/ha, rated visually after about 3 weeks. The method, then:
as §2

Assay [19] concerns Polygonum convolvulus. Kind of assay: Post-emergence herbicidal activity against POLCO. Particulars: Fallopia convolvulus, 504 h, dosage 320 g/ha, rated visually after about 3 weeks. Here is the method: as §2
For assay [20], the system named is Stellaria media. In words: Post-emergence herbicidal activity against STEME. The note with it: Stellaria media, 504 h, dosage 320 g/ha, rated visually after about 3 weeks. Here is the method: as §2
Assay [21] deals with Viola tricolor. Kind of assay: Post-emergence herbicidal activity against VIOTR. Particulars: Viola tricolor, 504 h, dosage 320 g/ha, rated visually after about 3 weeks. Here is the method: as §2
Assay [22] concerns Veronica persica. Kind of assay: Post-emergence herbicidal activity against VERPE. The note with it: Veronica persica, 504 h, dosage 320 g/ha, rated visually after about 3 weeks. The method, then:
as §2

For assay [23], the system named is Hordeum murinum. In words: Post-emergence herbicidal activity against HORMU. The note with it: Hordeum murinum, 504 h, dosage 320 g/ha, rated visually after about 3 weeks. Here is the method: as §2
Assay [24] can be described thus: Pre-emergence herbicidal action against harmful plants (summary of the tables). The note with it: 504 h, application rate of 0.08 kg of active substance or less per hectare, read-out: herbicidal action, pre-emergence treatment (very good activity).
From the text: as §1, with “plants.” for “plants. [table]”
As shown by the results, compounds according to the invention such as, for example, the compounds No. I-02 and other compounds from the tables (I-05, I-10, I-11, I-12, I-13, I-14, I-15, I-16, I-17, I-18, I-19, I-20, I-21, I-22, I-23, I-24, I-25, I-26, I-27, I-28, I-29) have, when used for pre-emergence treatment, very good activity (80% to 100% herbicidal action) against harmful plants such as Abutilon theophrasti, Alopecurus myosuroides, Amaranthus retroflexus, Avena fatua, Cyperus esculentus, Echinochloa crus-galli, Hordeum murinum, Lolium rigidum, Pharbitis purpurea, Polygonum convolvulus, Setaria viridis, Stellaria media, Veronica persica and Viola tricolor at an application rate of 0.08 kg of active substance or less per hectare.

Assay [25] concerns Amaranthus retroflexus. In words: Post-emergence herbicidal activity against AMARE. Particulars: Amaranthus retroflexus, 504 h, dosage 320 g/ha, rated visually after about 3 weeks. The method, then:
as §2

On to `C=C[C@]1(C(=O)N[C@@H]2CO[C@H](C(=O)NN(C)C)C2)CC(c2cc(F)cc(F)c2)=NO1` (mixture of isomers) [Example I-15, (5S)-3-(3,5-difluorophenyl)-N-[cis-5-(dimethylaminocarbamoyl)tetrahydrofuran-3-yl]-5-vinyl-4H-isoxazole-5-carboxamide], for which the pest or weed control at 80 g/ha in [1] came out at 100%; in assay [2], 90%; in assay [3], 90%; in assay [4], 100%; in [5], 100%; in assay [6], 100%. For the same compound, the pest or weed control at 80 g/ha in assay [7] is 100%; in assay [8], 100%; in assay [9], 100%; in [10], 100%; in assay [11], 90%; in [24], 80 to 100%. In addition, the pest or weed control at 320 g/ha in assay [12] worked out at 100%; in assay [13], 100%; in assay [14], 90%; in [15] it was 90%; in assay [16], 80%; in [17], 80%. Besides, the pest or weed control at 320 g/ha amounted to 80% in [18]; 90% in assay [19]; 90% in assay [20]; 80% in assay [21]; 80% in assay [22]; 90% in assay [23].

For `C=C[C@]1(C(=O)N[C@H]2CO[C@@H](C(=O)NNC(=O)OC(C)(C)C)C2)CC(c2cc(F)cc(F)c2)=NO1` (mixture of isomers) [Example I-19, tert-butyl N-[[cis-4-[[(5S)-3-(3,5-difluorophenyl)-5-vinyl-4H-isoxazole-5-carbonyl]amino]tetrahydrofuran-2-carbonyl]amino]carbamate], the pest or weed control at 80 g/ha in assay [2] is 90%; in [3], 80%; in assay [4], 100%; in assay [5], 90%; in assay [7], 90%; in assay [8], 90%. The pest or weed control at 80 g/ha in [9] was 80%; in [11], 100%; in [24] it was 80 to 100%. Besides, the pest or weed control at 320 g/ha in assay [12], in assay [13], in assay [14], in assay [15], in [16] and in assay [17] was 90% in each case. In addition, the pest or weed control at 320 g/ha in assay [25] is 90%; in assay [18], 90%; in assay [19] it was 90%; in [20], 90%; in [21], 90%; in [22], 80%. Also, the pest or weed control at 320 g/ha in [23] amounted to 90%.

With `CONC(=O)[C@@H]1C[C@H](NC(=O)C2(C)CC(c3cccc(F)c3)=NO2)CO1` (relative stereo) [Example I-10, 3-(3-fluorophenyl)-N-[cis-5-(methoxycarbamoyl)tetrahydrofuran-3-yl]-5-methyl-4H-isoxazole-5-carboxamide], the pest or weed control at 80 g/ha turned out to be 100% in [1]; 80% in [2]; 80% in assay [3]; 100% in assay [4]; 90% in [5]; 90% in [6]. Besides, the pest or weed control at 80 g/ha in assay [7] is 90%; in assay [8] it was 90%; in assay [11] it was 100%; in assay [24], 80 to 100%. For the same compound, the pest or weed control at 320 g/ha in assay [12] was determined as 100%; in assay [13], 90%; in [14] it was 90%; in assay [15], 90%; in [16] it was 90%; in assay [25], 80%. Also, the pest or weed control at 320 g/ha is 90% in assay [18], 80% in assay [20], 80% in assay [22] and 90% in assay [23].
